Experimental data as given in US20050054103A1, “Expansion of renewable stem cell populations using modulators of PI 3-kinase” (priority 2003, published 2005).

Key:
CD34+ cells = assay: Ex-vivo expansion of CD34+ cell enriched cultures with RAR antagonist, cell counts and FACS surface antigen analysis; type: cell-based, human; conditions: for No. of cells (× 10^4): 2 weeks after seeding; for No. of CD34+ cells: RAR antagonist 10^−5 M for one week only
Procedure: Human blood cells were obtained from umbilical cord blood from female patients following full-term, normal delivery (informed consent was obtained). Samples were collected and processed within 12 hours postpartum. Blood was mixed with 3% Gelatin (Sigma, St. Louis, Mo.), sedimented for 30 minutes to remove most red blood cells. […] The mononuclear cell fraction in the interface layer was collected, washed three times and resuspended in phosphate-buffered saline (PBS) solution (Biological Industries) containing 0.5% bovine serum albumin (BSA, Fraction V; Sigma).
To purify CD34^+ mononuclear cells, the fraction was subjected to two cycles of immuno-magnetic separation using the MiniMACS® or Clinimax® CD34 Progenitor Cell Isolation Kit (Miltenyi Biotec, Auburn, Calif.) as per manufacturer's recommendations.
CD34^+ expressing purified cells above were cultured in 24-well Costar Cell Culture Clusters (Coming Inc., Corning, N.Y.) or culture bags (American Fluoroseal Corp), at a concentration of 10^4 cells/ml in alpha medium (Biological Industries, Beit Haemek, Israel) supplemented with 10% fetal bovine serum (FBS, Biological Industries). The following human recombinant cytokines were added: Thrombopoietin (TPO), interleukin-6 (IL-6), FLT-3 ligand and stem cell factor (SCF), all at final concentrations of 50 ng/ml each, though occasionally IL-3, at a concentration of 20 ng/ml, was added either together or instead of SCF. For non-hematopoietic cell differentiation, FGF, EGF, NGF, VEGF, LIF or Hepatocyte growth factor (HGF) were used to supplement the growth medium, either alone or in various combinations. All cytokines used were purchased from Perpo Tech, Inc. (Rocky Hill, N.J.). The cultures were incubated at 37° C., 5% CO2, in a humidified atmosphere.
At weekly intervals, cell cultures were toped and semi-depopulated and were supplemented with fresh medium, serum and cytokines or supplemented with fresh growth medium, alone. At predetermined time points, cells were harvested, stained with trypan blue, counted, and cell morphology was determined via the use of cytospin (Shandon, UK)-prepared smears stained with May-Grunwald/Giemsa solutions.
CD34^+ purified and whole MNC cultures were prepared and maintained as described above. […] The antagonist was added for a predetermined, limited period, for up to three weeks or continuously during the entire culture period.
Cells were harvested, washed with a PBS solution containing 1% bovine sera albumin (BSA) and 0.1% sodium azide (Sigma), and stained at 4° C. for 60 minutes with fluorescein isothiocyanate or phycoerythrin-conjugated antibodies (all from Immunoquality Products, the Netherlands). The cells were then washed with the same buffer and analyzed by FACS caliber or Facstarplus flow cytometers. Cells were passed at a rate of 1000 cells/second, using saline as the sheath fluid. A 488 nm argon laser beam served as the light source for excitation. Emission of ten thousand cells was measured using logarithmic amplification, and analyzed using CellQuest software. Negative control staining of cells was accomplished with mouse IgG-PE (Dako A/S Glostrup, Denmark) and mouse IgG-FITC (BD Biosciences, Erembodegem, Belgium).
CD34 surface expression on short and long-term cultures initiated either with purified CD34^+ cells or the entire MNC fraction was determined as follows: CD34^+ cells were positively reselected (Miltenyi kit) and counted. Purity was confirmed by subsequent FACS and cell morphology analysis.
Reselected CD34^+ cell subsets were stained for the following combination of antigens: CD34PE/CD38FITC and CD34PE/38, 33, 14, 15, 3, 4, 61, 19 (Lin) FITC. The fraction positive for CD34 and negative for CD38 was defined as CD34^+CD38^−. The fraction positive for CD34 and negative for LIN was defined as CD34^+Lin^− cell fraction.
FACS analysis results are given as percentage values of cells. Absolute numbers of subsets are calculated from the absolute number of CD34^+ cells.

NOD/SCID mice = assay: Engraftment of SCID mice by ex-vivo expanded human hematopoietic cells; type: in vivo; conditions: for Engraftment CD19 (%) / Engraftment CD34 (%) / Engraftment CD45 (%) / Engraftment Colonies (per 2 × 10^5 SCID BM cells): TEPA + Cytokines
Procedure: Engraftment of SCID mice by ex-vivo expanded human hematopoietic cells: […] After 4 weeks, the mice were sacrificed and their femora and tibias were excised and the bone marrow flushed with a syringe fitted with a 25 gauge needle. A single cell suspension was prepared, the cells were washed and an aliquot counted with Trypan blue. In order to quantitate engrafted cells of human origin, cells were stained with FITC-conjugated anti CD45 antibodies and PE-conjugated either anti CD34, CD19 or CD33 antibodies. Anti CD45 antibodies recognize human, but not mouse, cells, and thus, indicates the human origin of the cells. The proliferation and differentiation potential of the engrafted cells was assayed by cloning bone marrow cells in semi-solid medium under conditions that allow specifically growth of human derived colonies essentially as described in (56).

Cord blood-derived cells = assay: Storage and separation of cord blood cells in the presence of TEPA, then long-term culture; type: cell-based; conditions: cells stored 24 hours at 4° C. and separated with 10 μM TEPA
Procedure: Cord blood-derived cells were collected and stored (unseparated) for 24 hours, at 4° C., either in the presence or absence of 10 μM TEPA. CD34^+ cells were then separated using either 10 μM TEPA-PBS buffer or TEPA free PBS buffer, respectively. Then, cells were grown in long-term cultures in the presence of 10 μM TEPA.

[1] = RAR antagonist 10^−5 M, 2 weeks
[2] = RAR antagonist 10^−6 M, 2 weeks
[3] = reselected CD34+ cells after two weeks in culture
[4] = CB 2 (first listed) 10% FCS, 2 weeks ex-vivo
[5] = CB 2 (second listed) 10% FCS, 2 weeks ex-vivo

Q: CCc1ccc(C2=CC(C)(C)Sc3ccc(C#Cc4ccc(C(=O)O)cc4)cc32)cc1 [AGN 194310] was tested. Which “cell proliferation enabled until (post initial seeding)” value (CD34+ cells; AGN194310 10^−7 M) did it give?
A: ≤ 11 weeks

Q: What about the “expression of the CD38 antigen” value (CD34+ cells; FACS, 2 weeks) of the same compound?
A: completely abolished

Q: What about the “No. of cells (× 10^4)” value (CD34+ cells; RAR antagonist 10^−5 M + 4 cytokines) of the same compound?
A: 42 × 10^4

Q: What about the “No. of CD34+ cells” value (CD34+ cells; week 13) of the same compound?
A: 10322

Q: What about the “No. of CD34+ cells” value (CD34+ cells; week 20) of the same compound?
A: 0

Q: What about the “% 34^+/38^−cells” value (CD34+ cells; [1]) of the same compound?
A: 17.14%

Q: What about the “% 34^+/Lin^−cells” value (CD34+ cells; [1]) of the same compound?
A: 15.18%

Q: What about the “% 34^+cells” value (CD34+ cells; [1]) of the same compound?
A: 18.94%

Q: And the “No. of cells (× 10^4)” value (CD34+ cells; RAR antagonist 10^−6 M + 4 cytokines)?
A: 52 × 10^4

Q: And the “% 34^+/38^−cells” value (CD34+ cells; [2])?
A: 17.16%

Q: And the “% 34^+/Lin^−cells” value (CD34+ cells; [2])?
A: 11.91%

Q: And the “% 34^+cells” value (CD34+ cells; [2])?
A: 19.59%

Q: What about the “increase in CD34+ expression between week three to eleven” value (CD34+ cells; RAR antagonist first three weeks only, then eight weeks without) of the same compound?
A: 92 fold

Q: And the “CD34^+Lin^− expansion” value (CD34+ cells; after two weeks in culture, CD34+ re-selected fraction)?
A: 530 fold

Q: What about the “increase in CD34^+CD38^− surface expression” value (CD34+ cells; [3]) of the same compound?
A: 1000 fold

Q: And the “increase in CD34^+Lin^− surface expression” value (CD34+ cells; [3])?
A: 500 fold

Q: And the “expansion of CD34+ compartment since the initiation of the cultures” value (CD34+ cells; week 11, RAR antagonist first three weeks only)?
A: 1621 fold

Q: And the “increase in CD34^+Lin^− expression” value (CD34+ cells; week eleven, 9 weeks after termination of antagonist treatment)?
A: 16,700 fold

Q: With NCCNCCNCCNCCN [TEPA, tetraethylenepentamine] as the compound, how does the “Engraftment CD19 (%)” value (NOD/SCID mice; [4]) read?
A: 11%

Q: What about the “Engraftment CD34 (%)” value (NOD/SCID mice; [4]) of the same compound?
A: 13%

Q: And the “Engraftment CD45 (%)” value (NOD/SCID mice; [4])?
A: 56%

Q: And the “Engraftment Colonies (per 2 × 10^5 SCID BM cells)” value (NOD/SCID mice; [4])?
A: 330

Q: And the “Engraftment CD19 (%)” value (NOD/SCID mice; [5])?
A: 9%

Q: And the “Engraftment CD34 (%)” value (NOD/SCID mice; [5])?
A: 13.5%

Q: And the “Engraftment CD45 (%)” value (NOD/SCID mice; [5])?
A: 48%

Q: And the “Engraftment Colonies (per 2 × 10^5 SCID BM cells)” value (NOD/SCID mice; [5])?
A: 528

Q: What about the “Engraftment CD19 (%)” value (NOD/SCID mice; CB 3 10% FCS, 2 weeks ex-vivo) of the same compound?
A: 5%

Q: And the “Engraftment CD34 (%)” value (NOD/SCID mice; CB 3 10% FCS, 2 weeks ex-vivo)?
A: 4%

Q: What about the “Engraftment CD45 (%)” value (NOD/SCID mice; CB 3 10% FCS, 2 weeks ex-vivo) of the same compound?
A: 20%

Q: What about the “Engraftment Colonies (per 2 × 10^5 SCID BM cells)” value (NOD/SCID mice; CB 3 10% FCS, 2 weeks ex-vivo) of the same compound?
A: 100

Q: What about the “Engraftment CD19 (%)” value (NOD/SCID mice; CB 4 1% FCS, 2 weeks ex-vivo) of the same compound?
A: 8%

Q: And the “Engraftment CD34 (%)” value (NOD/SCID mice; CB 4 1% FCS, 2 weeks ex-vivo)?
A: 7%

Q: What about the “Engraftment CD45 (%)” value (NOD/SCID mice; CB 4 1% FCS, 2 weeks ex-vivo) of the same compound?
A: 28%

Q: And the “Engraftment Colonies (per 2 × 10^5 SCID BM cells)” value (NOD/SCID mice; CB 4 1% FCS, 2 weeks ex-vivo)?
A: 185

Q: What about the “Engraftment CD19 (%)” value (NOD/SCID mice; CB 4 1% FCS, 4 weeks ex-vivo) of the same compound?
A: 14%

Q: What about the “Engraftment CD34 (%)” value (NOD/SCID mice; CB 4 1% FCS, 4 weeks ex-vivo) of the same compound?
A: 9%

Q: What about the “Engraftment CD45 (%)” value (NOD/SCID mice; CB 4 1% FCS, 4 weeks ex-vivo) of the same compound?
A: 40%

Q: And the “Engraftment Colonies (per 2 × 10^5 SCID BM cells)” value (NOD/SCID mice; CB 4 1% FCS, 4 weeks ex-vivo)?
A: 267

Q: What about the “Engraftment CD19 (%)” value (NOD/SCID mice; CB 5- FCS, 4 weeks ex-vivo) of the same compound?
A: 9%

Q: And the “Engraftment CD34 (%)” value (NOD/SCID mice; CB 5- FCS, 4 weeks ex-vivo)?
A: 6%

Q: And the “Engraftment CD45 (%)” value (NOD/SCID mice; CB 5- FCS, 4 weeks ex-vivo)?
A: 21%

Q: What about the “Engraftment Colonies (per 2 × 10^5 SCID BM cells)” value (NOD/SCID mice; CB 5- FCS, 4 weeks ex-vivo) of the same compound?
A: 275

Q: What about the “Engraftment CD19 (%)” value (NOD/SCID mice; CB 6 1% FCS, 2 weeks ex-vivo) of the same compound?
A: 19%

Q: And the “Engraftment CD34 (%)” value (NOD/SCID mice; CB 6 1% FCS, 2 weeks ex-vivo)?
A: 16%

Q: And the “Engraftment CD45 (%)” value (NOD/SCID mice; CB 6 1% FCS, 2 weeks ex-vivo)?
A: 73%

Q: What about the “Engraftment Colonies (per 2 × 10^5 SCID BM cells)” value (NOD/SCID mice; CB 6 1% FCS, 2 weeks ex-vivo) of the same compound?
A: 350

Q: What about the “Engraftment CD19 (%)” value (NOD/SCID mice; CB 6 10% FCS, 2 weeks ex-vivo) of the same compound?
A: 26%

Q: What about the “Engraftment CD34 (%)” value (NOD/SCID mice; CB 6 10% FCS, 2 weeks ex-vivo) of the same compound?
A: 9%

Q: And the “Engraftment CD45 (%)” value (NOD/SCID mice; CB 6 10% FCS, 2 weeks ex-vivo)?
A: 73%

Q: What about the “Engraftment Colonies (per 2 × 10^5 SCID BM cells)” value (NOD/SCID mice; CB 6 10% FCS, 2 weeks ex-vivo) of the same compound?
A: 420

Q: What about the “cord blood samples (of 6) expanded ex-vivo that succeeded to engraft the animals” value (NOD/SCID mice; expanded in the presence of TEPA) of the same compound?
A: 6

Q: And the “duration of expansion of long-term cultures” value (Cord blood-derived cells)?
A: 8 weeks
